Laboratory results as given in patent US8846745B2, “Use of an indazolemethoxyalkanoic acid for reducing triglyceride, cholesterol and glucose levels” (Aziende Chimiche Riunite Angelini Francesco A.C.R.A.F. …, priority 2006, dated 2014).

Key:
IL-12 = details: human monocytes, LPS 100 ng/ml for 4 hours, bindarit 300 μM tested as sodium salt
Description: The capacity of bindarit to inhibit the expression of IL-12 by human monocytes stimulated with lipopolysaccharide (LPS) was evaluated.
Human monocytes were used, which were isolated from healthy donors by centrifugation on a Ficoll gradient and purified by two successive centrifugation steps, followed by a step of isolation by means of an immunomagnetic system of negative cell separation (MACS, Miltenyi Biotech), using specific antibodies.
The cells were stimulated with LPS (100 ng/ml) for 4 hours in the presence or absence of bindarit (300 μM). The product was tested in the form of the sodium salt obtained by salification with equimolar sodium hydroxide and subsequent dilution in the medium used. The total RNA was extracted from cells using TRizol (Invitrogen Life Technologies) according to manufacturer's instructions, reverse-transcribed and prepared by GeneChip hybridization.

[1] = system: obese Zucker rats (fa/fa); details: standard rodent diet supplemented with 0.5% bindarit, blood at 6, 16, 28 and 40 weeks old
Description: The activity of bindarit was tested in an experimental model in rats.
The study was performed on rats 5 weeks old on arrival, of the Zucker strain homozygous for the “fa” allele (fa/fa), insulin-resistant, hyperinsulinaemic and obese, and on rats of the same age of the heterozygous Zucker control strain (fa/+), phenotypically normal, insulin-sensitive and slim.
At six weeks old, the obese Zucker rats were divided into two groups, one of which was fed with a standard rodent diet, and the other with a standard rodent diet supplemented with 0.5% bindarit.
The slim Zucker rats of the same age were used as controls and fed with a standard rodent diet.
Blood samples were taken from the animals periodically (at 6, 16, 28 and 40 weeks old) for enzymatic measurement of the circulating levels of triglycerides, cholesterol and glucose.

## CC(C)(OCc1nn(Cc2ccccc2)c2ccccc12)C(=O)O [bindarit]
IL-12
  reduction of the levels of LPS-induced IL-12 specific mRNA: about 100 fold
[1]
  circulating levels of cholesterol: significant reduction
  circulating levels of triglycerides: significant reduction
  glycaemia (circulating glucose): significant reduction
